The text below walks through data of ChEMBL document CHEMBL1201862, “PubChem BioAssay data set” (2004).

One test addresses T1, Streptokinase A (Streptococcus pyogenes serotype M1, UniProt P10520).
T1 sequence (P10520 whole entry): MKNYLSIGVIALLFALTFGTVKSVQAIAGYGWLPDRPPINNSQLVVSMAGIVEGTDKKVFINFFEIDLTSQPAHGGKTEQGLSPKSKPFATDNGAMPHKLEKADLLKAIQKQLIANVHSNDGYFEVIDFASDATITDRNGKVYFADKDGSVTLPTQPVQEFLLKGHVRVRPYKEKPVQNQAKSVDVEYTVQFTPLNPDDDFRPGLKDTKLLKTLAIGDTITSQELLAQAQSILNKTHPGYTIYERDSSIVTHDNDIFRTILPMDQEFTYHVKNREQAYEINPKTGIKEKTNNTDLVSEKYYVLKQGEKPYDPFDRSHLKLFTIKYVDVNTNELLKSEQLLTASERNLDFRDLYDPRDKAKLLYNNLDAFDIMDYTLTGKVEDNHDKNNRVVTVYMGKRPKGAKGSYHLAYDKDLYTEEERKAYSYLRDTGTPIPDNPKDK
Kind of test: S. pyogenes streptokinase expression inhibitors, potency, dose response, plasminogen activation absorbance, OD405 (AID 1914).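 Further: secreted streptokinase activity via plasminogen activation per viability signal from cell pellet.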 Format: functional, Streptococcus pyogenes M1 GAS.

Test [1] relates to HEK293. Kind of test: NOD2 signaling inhibitors in MDP-stimulated cells, cell-based, uHTS, luminescence (AID 2001). In kind it is functional. The following applies: Homo sapiens.
Test [2] has as its system HEK293. Kind of test: cells. In kind it is functional, cell-based. The note with it: Homo sapiens.
Test [3] in a line: A549 cell cytotoxicity, dose response, cytotoxicity control, plate reader, cherry-pick, antagonist series (AID 743412). Format: functional, cell-based.
The target in test [4] is Nucleotide-binding oligomerization domain-containing protein 2 (Homo sapiens, UniProt Q9HC29). Kind of test: NOD2 signaling inhibitors, cell-based, luminescence, uHTS, HEK293 (AID 1566). Format: functional.
Test [5] is described as follows: LGR2 antagonists, dose response, cell-based, HEK293, CRE-luciferase reporter, cherry pick, set 2 (AID 743343).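 Further: transfected cells were stimulated with diluted bursicon conditioned medium after compound addition.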 Format: functional. Background: In a reporter assay the amount or activity of a reporter protein is the signal.
Test [6] relates to HEK293. Kind of test: cells. In kind it is functional, cell-based. The note with it: Homo sapiens. This is another data set of the same source.
The next test deals with Streptococcus. Kind of test: Group A Streptococcus viability loss, dose response, counter-screen for streptokinase expression inhibitor project, luminescence, BacTiterGlo (AID 1915).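 Further: potency for reduction of bacterial viability or growth.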 In kind it is functional, organism-based.
Test [7] in a line: inhibitors of intracellular T. cruzi replication, confirmation, NIH3T3 host cells, beta-gal luminescence (AID 2044).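 Further: intracellular parasites grown in NIH/3T3 mouse fibroblasts as host cells; luminescent beta-galactosidase reporter signal from transgenic T. cruzi replicating inside host cells; inhibitors lower the luminescence signal.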 In kind it is functional, cell-based.
In the next test the test system is Vero. Kind of test: cells. In kind it is functional. The note with it: Chlorocebus sabaeus.
A short description of test [8]: HEK293 cell cytotoxicity, dose response, cytotoxicity control, plate reader, cherry-picked samples (AID 743446). In kind it is functional, cell-based.
Test [9] in a line: MC4R antagonists, dose response, counter-screen for LGR2 antagonist project, cell-based, plate reader, cherry pick (AID 743444).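 Further: transfected HEK 293 cells stimulated with alpha-MSH peptide; potency of inhibitors of the alpha-MSH evoked signal.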 Format: functional.
Test [10] has as its system HEK293. Kind of test: cells. In kind it is functional, cell-based. The note with it: Homo sapiens. This is another data set of the same source.
The nature of test [11]: cytotoxicity toward NIH3T3 fibroblasts, dose response, counter-screen, cell-based, ATP luminescence, mouse fibroblasts (AID 2010).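 Further: cells exposed to compound for about 90 hours before reading.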 In kind it is functional. A general note: A counterscreen serves to expose hits that act by an unwanted route or on another target.
Test [12] is described as follows: HepG2 cell cytotoxicity, dose response, cytotoxicity control, plate reader, cherry-pick, antagonist series (AID 743416). In kind it is functional, cell-based.
Test [13] concerns HEK293. Kind of test: NOD1 signaling inhibitors, primary screen, cell-based, luminescence, uHTS (AID 1578). The note with it: Homo sapiens. In kind it is functional.
Test [14] has as its system Streptococcus sp. 'group A'. Kind of test: growth inhibition of control SK(-) GAS strain, dose response, counter-screen for streptokinase expression inhibitor project, luminescence, kanamycin, BacTiterGlo, confirmation (AID 1900). In kind it is functional, organism-based.
A short description of test [15]: Counterscreen for antagonists of the orexin 1 receptor (OX1R; HCRTR1): Fluorescence-based cell-based high throughput dose response assay to identify antagonists of the parental CHO cell line. [Related pubchem assays (depositor defined):AID434989, AID435008, AID463079, AID485270, AID492963, AID492964, AID492965, AID493232, AID504699, AID504701]. In kind it is functional.

Test [16] concerns the target T2, Orexin/Hypocretin receptor type 1 (Homo sapiens, UniProt O43613).
T2 sequence (O43613 whole entry): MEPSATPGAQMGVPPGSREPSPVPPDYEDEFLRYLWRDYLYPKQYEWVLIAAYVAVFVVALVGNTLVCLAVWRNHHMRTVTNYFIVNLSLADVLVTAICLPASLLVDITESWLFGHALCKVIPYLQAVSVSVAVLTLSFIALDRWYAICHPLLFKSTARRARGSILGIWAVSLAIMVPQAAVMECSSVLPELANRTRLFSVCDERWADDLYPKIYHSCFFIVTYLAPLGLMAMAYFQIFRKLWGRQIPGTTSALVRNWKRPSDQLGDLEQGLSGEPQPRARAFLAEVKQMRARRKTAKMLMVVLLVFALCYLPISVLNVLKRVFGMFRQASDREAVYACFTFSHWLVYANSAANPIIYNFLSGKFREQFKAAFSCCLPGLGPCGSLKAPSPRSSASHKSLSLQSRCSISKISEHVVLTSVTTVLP
Kind of test: Homogeneous Time Resolved Fluorescence (HTRF)-based cell-based high throughput dose response assay for antagonists of the orexin 1 receptor (OX1R; HCRTR1). [Related pubchem assays (depositor defined):AID434989, AID435008, AID463079, AID485270, AID492963, AID492964, AID492965, AID493232, AID504717, AID504718]. Format: functional. In general terms: In TR-FRET formats the signal depends on donor and acceptor labels being close together.

Test [17] concerns the target T3, Heat shock factor protein 1 (Mus musculus, UniProt P38532).
T3 sequence (P38532 whole entry): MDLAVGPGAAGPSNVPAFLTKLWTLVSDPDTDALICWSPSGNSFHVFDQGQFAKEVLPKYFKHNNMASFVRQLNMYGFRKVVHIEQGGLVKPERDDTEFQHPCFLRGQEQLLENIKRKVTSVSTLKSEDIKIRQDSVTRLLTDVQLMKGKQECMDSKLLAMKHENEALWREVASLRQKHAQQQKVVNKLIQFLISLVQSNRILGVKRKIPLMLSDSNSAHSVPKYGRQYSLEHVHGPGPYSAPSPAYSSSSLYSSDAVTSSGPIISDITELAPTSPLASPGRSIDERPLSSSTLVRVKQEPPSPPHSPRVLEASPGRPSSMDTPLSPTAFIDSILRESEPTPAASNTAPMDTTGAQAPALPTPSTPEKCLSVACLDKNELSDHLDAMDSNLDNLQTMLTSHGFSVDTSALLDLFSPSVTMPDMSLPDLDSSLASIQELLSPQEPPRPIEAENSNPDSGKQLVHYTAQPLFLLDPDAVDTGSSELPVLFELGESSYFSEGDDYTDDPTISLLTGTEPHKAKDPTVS
Kind of test: HSF1 potentiators in luciferase reporter cells, confirmation, cell-based, NIH3T3, luminescence, dose retest (AID 435004).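 Further: stress induced by proteasome inhibitor MG132 added 30 min after compound; luciferase reporter driven by HSF1 response element in NIH3T3 cells; actives raise luminescence as potentiators of the MG132 stress response.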 In kind it is functional.

A further test concerns CHO-K1. Kind of test: Counterscreen for antagonists of the orexin 1 receptor (OX1R; HCRTR1): Homogeneous time resolved fluorescence (HTRF)-based cell-based dose response assay to identify antagonists of the parental CHO-K1 cell line. [Related pubchem assays (depositor defined):AID434989, AID435008, AID463079, AID485270, AID492963, AID492964, AID492965, AID493232, AID504699, AID504701]. In kind it is functional. The note with it: Cricetulus griseus.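 Further: potency for inhibition of ATP-stimulated IP1 production as antagonists.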

The target of test [18] is T2, Orexin/Hypocretin receptor type 1. Kind of test: Fluorescence-based cell-based high throughput dose response assay for antagonists of the orexin 1 receptor (OX1R; HCRTR1). [Related pubchem assays (depositor defined):AID434989, AID435008, AID463079, AID485270, AID492963, AID492964, AID492965, AID493232, AID504717, AID504718]. Format: functional.

The term EC50 denotes the midpoint of the concentration-response curve. By IC50 is commonly meant the concentration at which inhibition is half-maximal. In general, AC50 refers to the concentration at which the activity in the assay is half-maximal. By CC50 is commonly meant the concentration at which the toxic effect on the cells reaches its halfway point.

Activity calls are given as the source filed them. Some results are limits rather than exact numbers.

Nucleotide-binding oligomerization domain-containing protein 2, sequence (Q9HC29 whole entry, the tested form may be a part): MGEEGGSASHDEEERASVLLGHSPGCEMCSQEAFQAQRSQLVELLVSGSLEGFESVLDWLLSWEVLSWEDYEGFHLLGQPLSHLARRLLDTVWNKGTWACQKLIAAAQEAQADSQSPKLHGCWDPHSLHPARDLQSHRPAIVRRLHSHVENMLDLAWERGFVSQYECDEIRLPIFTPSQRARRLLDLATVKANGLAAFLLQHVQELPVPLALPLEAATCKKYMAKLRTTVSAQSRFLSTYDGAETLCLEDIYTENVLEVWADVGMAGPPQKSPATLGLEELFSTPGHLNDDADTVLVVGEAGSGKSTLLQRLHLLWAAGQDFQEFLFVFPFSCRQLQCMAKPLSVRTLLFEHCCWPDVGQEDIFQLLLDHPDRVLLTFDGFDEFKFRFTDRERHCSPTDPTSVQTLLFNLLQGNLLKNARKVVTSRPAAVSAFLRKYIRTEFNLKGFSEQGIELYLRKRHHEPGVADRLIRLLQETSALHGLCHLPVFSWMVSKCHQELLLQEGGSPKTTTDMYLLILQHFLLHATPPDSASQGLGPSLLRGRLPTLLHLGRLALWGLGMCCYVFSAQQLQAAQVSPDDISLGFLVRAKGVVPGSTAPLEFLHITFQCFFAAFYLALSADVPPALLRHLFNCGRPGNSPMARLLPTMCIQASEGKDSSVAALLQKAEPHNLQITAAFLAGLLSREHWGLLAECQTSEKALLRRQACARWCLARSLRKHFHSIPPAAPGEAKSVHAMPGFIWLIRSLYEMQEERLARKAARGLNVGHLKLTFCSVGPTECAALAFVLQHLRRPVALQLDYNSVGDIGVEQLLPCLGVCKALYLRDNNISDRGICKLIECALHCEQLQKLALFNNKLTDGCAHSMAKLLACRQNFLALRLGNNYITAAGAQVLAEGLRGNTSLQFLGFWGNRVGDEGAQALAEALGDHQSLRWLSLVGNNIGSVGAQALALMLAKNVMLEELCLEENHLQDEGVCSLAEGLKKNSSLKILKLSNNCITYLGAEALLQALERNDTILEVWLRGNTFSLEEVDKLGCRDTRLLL

With `CC(=O)c1c(C)[nH]c(C(=O)Nc2nc(-c3ccc(-c4ccccc4)cc3)cs2)c1C`, the EC50 is > 150 µM (not active) on Streptokinase A; 14.1 µM (active) in test [4]; 16.7 µM (active) in the test on Streptococcus; 0.876 µM (active) in [7]; > 60 µM (not active) in test [11]; 3.76 µM (active) with HEK293 [13]. Besides, the concentration giving a half-maximal response (EC50) in [14] is 4.48 µM (active). Also, the IC50 is 4.86 µM (inactive) in the test with HEK293 [1], 11.2 µM (active) with HEK293 [2], 4.41 µM (active) in the test on HEK293 [6] and 18.2 µM (active) in the test on HEK293 [10]. The half-maximal activity concentration (AC50) in [3] is 17.6 µM (active); in test [5] it was 40.2 µM (active); in [8], 17.9 µM (active); in [9] it was 20 µM (active); in test [12], 23.5 µM (active). In the test with Vero, the CC50 is 21.1 µM (active).

Take `OC(CN1c2ccccc2Sc2ccccc21)Cn1nnc2ccccc21` (configuration not stated): the IC50 is 21.3 µM (inactive) in test [15], 13.3 µM (inactive) in [16], > 66.2 µM (inactive) in the test on CHO-K1 and 16.4 µM (inactive) in test [18]. Further, the EC50 in test [17] was > 260 µM (inactive).
